The values that follow come from ChEMBL document CHEMBL1157588, “Searching for multi-target antipsychotics: Discovery of orally active heterocyclic N-phenylpiperazine ligands of D2-like and 5-HT1A receptors” (Bioorg Med Chem, 2010).

Common to all, as to format: organism-based
What all share (set-up): dose 4 mg/kg, route oral

The test system of data set [1] is Mus musculus. The experiment in a line: Toxicity in CF1 mouse assessed as induction of catalepsy by measuring time spent on elevated wood bar at 4 mg/kg, po after 60 mins (reference value: 2.7 +/- 2.9 sec). To be noted: in vivo, 1 h.
The test system of data set [2] is Mus musculus. Briefly: Toxicity in CF1 mouse assessed as induction of motor impairment by measuring permanence time at 4 mg/kg, po by rotarod test (reference value: 241.4 +/- 18.0 sec). The settings on record: in vivo, 0.005 h.
In data set [3] the test system is Mus musculus. Briefly: Toxicity in CF1 mouse assessed as induction of catalepsy by measuring time spent on elevated wood bar at 4 mg/kg, po after 30 mins (reference value: 1.8 +/- 1.1 sec). To be noted: in vivo, 0.5 h.
For data set [4], the system named is Mus musculus. Briefly: Toxicity in CF1 mouse assessed as induction of catalepsy by measuring time spent on elevated wood bar at 4 mg/kg, po after 90 mins (reference value: 2.4 +/- 2.6 sec). The settings on record: in vivo, 1.5 h.

`O=C(CCCN1CCC(O)(c2ccc(Cl)cc2)CC1)c1ccc(F)cc1` [HALOPERIDOL]: the Time in the data set on Mus musculus [1] is 89.7 s; in the data set on Mus musculus [2], 73.5 s; with Mus musculus [3], 54.4 s; in the data set on Mus musculus [4], 105 s.
